Test results reported in ChEMBL document CHEMBL5728220, “[1,3]thiazin-2-amine compound, application, and pharmaceutical composition” (2021).

Target: Beta-secretase 1 (Homo sapiens, UniProt P56817)
Assay: Activity Assay: The activity assay for the compound of each example was carried out in this experimental example, and the detailed test method was as follows:1. The test compound was formulated as 10 μmol/L solution in dimethylsulfoxide;2. Starting from 10 μmol/L, by 3-fold serial dilution, the inhibitory activity of each compound against the enzyme was tested in singlet state at 10 doses;3. IC50 values of test compounds were finally obtained.

Beta-secretase 1, sequence (P56817 whole entry): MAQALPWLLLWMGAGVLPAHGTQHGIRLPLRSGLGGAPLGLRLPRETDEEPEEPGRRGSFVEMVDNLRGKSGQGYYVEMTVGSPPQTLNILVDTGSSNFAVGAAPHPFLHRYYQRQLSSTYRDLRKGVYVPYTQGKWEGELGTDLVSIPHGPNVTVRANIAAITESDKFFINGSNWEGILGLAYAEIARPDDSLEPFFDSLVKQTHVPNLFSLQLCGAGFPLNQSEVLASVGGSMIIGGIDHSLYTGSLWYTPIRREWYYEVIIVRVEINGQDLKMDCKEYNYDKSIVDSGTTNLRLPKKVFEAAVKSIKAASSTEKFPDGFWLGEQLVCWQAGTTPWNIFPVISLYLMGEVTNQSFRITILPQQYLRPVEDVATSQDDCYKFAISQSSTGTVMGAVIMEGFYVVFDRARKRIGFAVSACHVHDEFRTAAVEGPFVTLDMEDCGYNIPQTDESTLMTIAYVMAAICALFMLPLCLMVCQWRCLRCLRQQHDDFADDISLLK

SMILES: C[C@H]1C[C@@]2(F)CSC(N)=N[C@@]2(c2cccc(NC(=O)c3ccc(Cl)cn3)c2)CO1
- IC50: 213 nM
